Source: patent US8614327B2 (Vertex Pharmaceuticals Incorporated, priority 2004, dated 2013)

Biological target: T1, ΔF508-CFTR (Homo sapiens, UniProt P13569, DEL508-508)
T1 construct: expressed in transfected cells
Assay: Membrane potential optical (FRET/VIPR) assay, identification of potentiator compounds
Assay type: cell-based
Conditions: Table 3, assay not given; for % Activity: relative efficacy
Method in brief: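 Double-addition potentiator screen: compound delivered in gluconate-substituted Cl^--free medium, membrane potential followed via CC2-DMPE/DiSBAC2(3) FRET on VIPR. Cells were ΔF508-CFTR-expressing NIH3T3 mouse fibroblasts, held 2 h at 37° C. then 24 h at 27° C. before assay.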

T1 sequence (P13569 with tags, fused parts or gaps DEL508-508): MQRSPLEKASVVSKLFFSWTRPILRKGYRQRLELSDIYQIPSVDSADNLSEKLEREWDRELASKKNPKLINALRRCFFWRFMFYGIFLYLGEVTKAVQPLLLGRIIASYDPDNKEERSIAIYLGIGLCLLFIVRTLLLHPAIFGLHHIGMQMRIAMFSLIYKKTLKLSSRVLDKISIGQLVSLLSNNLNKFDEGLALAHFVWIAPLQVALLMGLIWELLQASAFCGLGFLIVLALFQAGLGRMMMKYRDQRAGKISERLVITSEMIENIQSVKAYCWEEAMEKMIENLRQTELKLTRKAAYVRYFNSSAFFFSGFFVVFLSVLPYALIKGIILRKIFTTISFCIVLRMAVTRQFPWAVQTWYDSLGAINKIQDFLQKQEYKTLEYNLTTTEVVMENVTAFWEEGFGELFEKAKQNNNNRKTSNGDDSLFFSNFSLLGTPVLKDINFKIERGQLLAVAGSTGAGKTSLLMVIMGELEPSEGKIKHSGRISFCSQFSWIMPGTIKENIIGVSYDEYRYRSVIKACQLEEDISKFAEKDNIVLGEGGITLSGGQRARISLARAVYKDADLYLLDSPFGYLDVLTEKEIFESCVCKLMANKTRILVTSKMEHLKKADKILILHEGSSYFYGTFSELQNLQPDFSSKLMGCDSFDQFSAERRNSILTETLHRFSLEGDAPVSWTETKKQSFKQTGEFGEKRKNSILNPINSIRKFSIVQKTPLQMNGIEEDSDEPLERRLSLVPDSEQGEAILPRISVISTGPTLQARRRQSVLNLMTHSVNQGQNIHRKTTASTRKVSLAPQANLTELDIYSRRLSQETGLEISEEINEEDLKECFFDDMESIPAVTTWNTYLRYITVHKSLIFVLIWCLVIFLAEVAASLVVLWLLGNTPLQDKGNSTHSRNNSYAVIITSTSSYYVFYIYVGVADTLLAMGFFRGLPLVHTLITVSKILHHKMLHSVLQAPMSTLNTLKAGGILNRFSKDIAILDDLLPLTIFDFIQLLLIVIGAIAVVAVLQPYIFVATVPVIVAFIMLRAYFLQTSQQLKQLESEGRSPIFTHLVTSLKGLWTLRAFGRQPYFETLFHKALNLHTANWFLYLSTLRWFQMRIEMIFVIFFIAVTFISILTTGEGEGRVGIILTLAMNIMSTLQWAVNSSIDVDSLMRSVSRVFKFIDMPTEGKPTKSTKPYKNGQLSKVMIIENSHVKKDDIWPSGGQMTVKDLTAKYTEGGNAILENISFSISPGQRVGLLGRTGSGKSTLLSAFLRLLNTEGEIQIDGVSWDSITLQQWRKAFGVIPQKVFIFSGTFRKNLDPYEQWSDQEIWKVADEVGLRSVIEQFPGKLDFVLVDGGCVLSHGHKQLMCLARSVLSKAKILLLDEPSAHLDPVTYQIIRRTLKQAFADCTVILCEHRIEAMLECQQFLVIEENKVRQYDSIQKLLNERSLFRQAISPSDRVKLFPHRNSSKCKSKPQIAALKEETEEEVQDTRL

## O=C(Nc1ccc2nc(-c3ccccc3)[nH]c2c1)c1c[nH]c2ccccc2c1=O [Compound 73, 4-oxo-N-(2-phenyl-3H-benzoimidazol-5-yl)-1H-quinoline-3-carboxamide]
  EC50: 25 to 60 µM
  % Activity: + (<25%)

## CC(C)c1ccc(-c2ccccc2NC(=O)c2c[nH]c3ccccc3c2=O)cc1 [Compound 432, N-[2-(4-isopropylphenyl)phenyl]-4-oxo-1H-quinoline-3-carboxamide]
  EC50: < 10 µM
  % Activity: ++ (between 25% to 100%)

## CCOc1ccc2ncc(C(=O)Nc3ccc4cc[nH]c4c3)c(O)c2c1 [Compound 112, 6-ethoxy-4-hydroxy-N-(1H-indol-6-yl)quinoline-3-carboxamide]
  EC50: < 10 µM
  % Activity: ++ (between 25% to 100%)

## O=C(Nc1ccccc1-c1cc(F)cc(F)c1)c1c[nH]c2ccccc2c1=O [Compound 138, N-[2-(3,5-difluorophenyl)phenyl]-4-oxo-1H-quinoline-3-carboxamide]
  % Activity: ++ (between 25% to 100%)

## CC(C)(C)c1ccc(NC(=O)c2c[nH]c3ccccc3c2=O)cc1OCCO [Compound 458, N-[3-(2-hydroxyethoxy)-4-tert-butyl-phenyl]-4-oxo-1H-quinoline-3-carboxamide]
  EC50: < 10 µM
  % Activity: ++ (between 25% to 100%)

## O=C(c1ccccc1)c1ccccc1NC(=O)c1c[nH]c2ccccc2c1=O [Compound 252, N-(2-benzoylphenyl)-4-oxo-1H-quinoline-3-carboxamide]
  EC50: 10 to 25 µM
  % Activity: ++ (between 25% to 100%)

## CCOc1ccc(-c2ccccc2NC(=O)c2c[nH]c3ccccc3c2=O)cc1 [Compound 348, N-[2-(4-ethoxyphenyl)phenyl]-4-oxo-1H-quinoline-3-carboxamide]
  EC50: < 10 µM
  % Activity: ++ (between 25% to 100%)

## CC(C)(C)OC(=O)NCc1cc(NC(=O)c2c[nH]c3ccccc3c2=O)ccc1C(C)(C)C [Compound 465, [5-[(4-oxo-1H-quinolin-3-yl)carbonylamino]-2-tert-butyl-phenyl]methylaminoformic acid tert-butyl ester]
  EC50: < 10 µM
  % Activity: ++ (between 25% to 100%)

## CC(C)(C)CC(=O)Nc1ccc(C(C)(C)C)c(NC(=O)c2c[nH]c3ccccc3c2=O)c1 [Compound 196, N-[5-(3,3-dimethylbutanoylamino)-2-tert-butyl-phenyl]-4-oxo-1H-quinoline-3-carboxamide]
  EC50: < 10 µM
  % Activity: ++ (between 25% to 100%)

## COC(=O)NCC(C)(C)c1ccc(NC(=O)c2c[nH]c3ccccc3c2=O)cc1 [Compound 323, [2-Methyl-2-[4-[(4-oxo-1H-quinolin-3-yl)carbonylamino]phenyl]-propyl]aminoformic acid methyl ester]
  EC50: < 10 µM
  % Activity: ++ (between 25% to 100%)

## Cc1cccc(NC(=O)c2c[nH]c3ccccc3c2=O)n1 [Compound 173, N-(6-methyl-2-pyridyl)-4-oxo-1H-quinoline-3-carboxamide]
  EC50: 25 to 60 µM
  % Activity: + (<25%)

## CC(C)(C)c1ccc(NC(=O)c2c[nH]c3ccccc3c2=O)cc1N1CCCC1 [Compound 707, 4-oxo-N-(3-pyrrolidin-1-yl-4-tert-butyl-phenyl)-1H-quinoline-3-carboxamide]
  EC50: < 10 µM
  % Activity: ++ (between 25% to 100%)

## COCCOCC(C)(C)c1ccc(NC(=O)c2c[nH]c3ccccc3c2=O)cc1O [Compound 126, N-[3-hydroxy-4-[2-(2-methoxyethoxy)-1,1-dimethyl-ethyl]-phenyl]-4-oxo-1H-quinoline-3-carboxamide]
  EC50: < 10 µM
  % Activity: ++ (between 25% to 100%)

## O=C(Nc1cc(O)c(Cl)cc1F)c1c[nH]c2ccccc2c1=O [Compound 695, N-(4-chloro-2-fluoro-5-hydroxy-phenyl)-4-oxo-1H-quinoline-3-carboxamide]
  EC50: < 10 µM
  % Activity: ++ (between 25% to 100%)

## Cc1cc2cc(NC(=O)c3c[nH]c4ccccc4c3=O)ccc2[nH]1 [Compound 230, N-(2-methyl-1H-indol-5-yl)-4-oxo-1H-quinoline-3-carboxamide]
  EC50: 10 to 25 µM
  % Activity: ++ (between 25% to 100%)

## Cc1cccc2[nH]cc(C(=O)Nc3cc(O)c(C4(C)CCCCC4)cc3F)c(=O)c12 [Compound 498, N-[2-fluoro-5-hydroxy-4-(1-methylcyclohexyl)-phenyl]-5-methyl-4-oxo-1H-quinoline-3-carboxamide]
  EC50: < 10 µM
  % Activity: ++ (between 25% to 100%)

## O=C(Nc1ccc(N2CCN(CCO)CC2)cc1C(F)(F)F)c1c[nH]c2ccccc2c1=O [Compound 673, N-[4-[4-(2-hydroxyethyl)piperazin-1-yl]-2-(trifluoromethyl)phenyl]-4-oxo-1H-quinoline-3-carboxamide]
  EC50: < 10 µM
  % Activity: ++ (between 25% to 100%)

## Cc1cccc2[nH]cc(C(=O)Nc3ccc(OC(C)C)c(O)c3)c(=O)c12 [Compound 701, N-(3-hydroxy-4-isopropoxy-phenyl)-5-methyl-4-oxo-1H-quinoline-3-carboxamide]
  EC50: < 10 µM
  % Activity: ++ (between 25% to 100%)

## O=C(Nc1ccc2cc[nH]c2c1)c1cnc2ccc(F)cc2c1O [Compound 345, 6-fluoro-4-hydroxy-N-(1H-indol-6-yl)quinoline-3-carboxamide]
  EC50: < 10 µM
  % Activity: ++ (between 25% to 100%)

## CC(CO)(CO)c1ccc(NC(=O)c2c[nH]c3ccc(F)cc3c2=O)cc1 [Compound 627, 6-fluoro-N-[4-[2-hydroxy-1-(hydroxymethyl)-1-methyl-ethyl]phenyl]-4-oxo-1H-quinoline-3-carboxamide]
  EC50: < 10 µM
  % Activity: + (<25%)

## CNc1cccc2[nH]cc(C(=O)Nc3cc(O)c(C(C)(C)C)cc3C(C)(C)C)c(=O)c12 [Compound 542, N-(5-hydroxy-2,4-ditert-butyl-phenyl)-5-methylamino-4-oxo-1H-quinoline-3-carboxamide]
  EC50: < 10 µM
  % Activity: +++ (>100%)

## O=C(Nc1ccc(C2CCCCC2)cc1)c1c[nH]c2ccccc2c1=O [Compound 140, N-(4-cyclohexylphenyl)-4-oxo-1H-quinoline-3-carboxamide]
  % Activity: ++ (between 25% to 100%)

## O=C(Nc1cccc(S(=O)(=O)N2CCOCC2)c1)c1c[nH]c2ccccc2c1=O [Compound 185, N-(3-morpholinosulfonylphenyl)-4-oxo-1H-quinoline-3-carboxamide]
  EC50: 25 to 60 µM
  % Activity: + (<25%)

## O=C(Nc1ccc(N2CCC[C@@H]2CO)cc1C(F)(F)F)c1c[nH]c2ccccc2c1=O [Compound 670, (R)-N-(4-(2-(hydroxymethyl)pyrrolidin-1-yl)-2-(trifluoromethyl)phenyl)-4-oxo-1,4-dihydroquinoline-3-carboxamide]
  EC50: < 10 µM
  % Activity: ++ (between 25% to 100%)

## O=C(Nc1ccccc1-c1ccc(Cl)cc1Cl)c1c[nH]c2ccccc2c1=O [Compound 139, N-[2-(2,4-dichlorophenyl)phenyl]-4-oxo-1H-quinoline-3-carboxamide]
  % Activity: ++ (between 25% to 100%)

## Cc1cc(OC(F)(F)F)ccc1NC(=O)c1c[nH]c2ccccc2c1=O [Compound 538, N-[2-methyl-4-(trifluoromethoxy)phenyl]-4-oxo-1H-quinoline-3-carboxamide]
  EC50: < 10 µM
  % Activity: ++ (between 25% to 100%)

## O=C(Nc1ccccc1-c1ccccc1F)c1c[nH]c2ccccc2c1=O [Compound 313, N-[2-(2-fluorophenyl)phenyl]-4-oxo-1H-quinoline-3-carboxamide]
  EC50: < 10 µM
  % Activity: ++ (between 25% to 100%)

## CC(C)(C)c1ccccc1Oc1ccccc1NC(=O)c1c[nH]c2ccccc2c1=O [Compound 178, 4-oxo-N-[2-(2-tert-butylphenoxy)phenyl]-1H-quinoline-3-carboxamide]
  EC50: < 10 µM
  % Activity: ++ (between 25% to 100%)

## Cc1cccc2[nH]cc(C(=O)Nc3ccc(N4CC[C@@H](F)C4)cc3C(F)(F)F)c(=O)c12 [Compound 541, (R)-N-(4-(3-fluoropyrrolidin-1-yl)-2-(trifluoromethyl)phenyl)-5-methyl-4-oxo-1,4-dihydroquinoline-3-carboxamide]
  EC50: < 10 µM
  % Activity: ++ (between 25% to 100%)

## CN(C)CCNC(=O)c1ccc(-c2cc3cc[nH]c3cc2NC(=O)c2c[nH]c3ccccc3c2=O)cc1 [Compound 347, N-[5-[4-(2-dimethylaminoethylcarbamoyl)phenyl]-1H-indol-6-yl]-4-oxo-1H-quinoline-3-carboxamide]
  EC50: 10 to 25 µM
  % Activity: ++ (between 25% to 100%)

## COc1cc2[nH]cc(C(=O)Nc3cc(O)c(C(C)(C)C)cc3C(C)(C)C)c(=O)c2cc1F [Compound 617, 6-fluoro-N-(5-hydroxy-2,4-ditert-butyl-phenyl)-7-methoxy-4-oxo-1H-quinoline-3-carboxamide]
  EC50: < 10 µM
  % Activity: +++ (>100%)

## O=C(Nc1ccccc1-c1cccc(Cl)c1Cl)c1c[nH]c2ccccc2c1=O [Compound 171, N-[2-(2,3-dichlorophenyl)phenyl]-4-oxo-1H-quinoline-3-carboxamide]
  EC50: < 10 µM
  % Activity: ++ (between 25% to 100%)

## Cc1c[nH]c2cc(NC(=O)c3c[nH]c4ccccc4c3=O)ccc12 [Compound 113, N-(3-methyl-1H-indol-6-yl)-4-oxo-1H-quinoline-3-carboxamide]
  EC50: < 10 µM
  % Activity: ++ (between 25% to 100%)

## CCCc1ccc(NC)cc1NC(=O)c1c[nH]c2ccccc2c1=O [Compound 356, N-(5-methylamino-2-propyl-phenyl)-4-oxo-1H-quinoline-3-carboxamide]
  EC50: < 10 µM
  % Activity: ++ (between 25% to 100%)

## O=C(Nc1nc2ccccc2[nH]1)c1c[nH]c2ccccc2c1=O [Compound 216, N-(3H-benzoimidazol-2-yl)-4-oxo-1H-quinoline-3-carboxamide]
  EC50: 25 to 60 µM
  % Activity: + (<25%)
